Results on one substance are retold here after patent publication US11020449B2, “Use of the GK-1 peptide as an antitumoral and/or antimetastatic agent” (UNIVERSIDAD NACIONAL AUTÓNOMA DE MÉXICO, priority 2016, dated 2021).

Where two headings read alike, the source gives them in different places.

Test [1] has as its system B16-F10 cells. Conditions: for Number of tumors developed (Tumors): 10 μg GK-1 i.v. weekly, 32 days, mean±standard deviation. The procedure: To evaluate the antimetastatic effect of GK-1 in melanoma, 2×10^4 cells of the B16-F10 line were intravenously injected to C57BL/6 mice (n=40; 20 females and 20 males). At day 16 post-implantation, mice were separated into two groups: The G1 group (10 males and 10 females) was intravenously administered with 10 μg of GK-1 dissolved in 100 μL of ISS; the G2 group (10 males, 10 females) was intravenously administered with 100 μL of ISS. Treatments were repeated weekly for 32 days after cell implantation.

Test [2] has as its system B16-F10 cells. Nature of the test: B16-F10 melanoma model: survival rate and lung tumor foci (four groups). In kind it is in vivo, C57BL/6 mice. Conditions: for survival rate: i.v. weekly, 32 days after implantation. The procedure:
The B16 melanoma model is a lung metastasis model widely used for therapy evaluation. While the term “lung metastasis” is used to characterize this type of model, technically each lung nodule is a primary tumor.
Once the tumor is established (16 days after B16-F10 cells were implanted), mice were separated into four groups: One group was administered with a 0.10 μg/μL GK-1 solution in DMSO (0.05%); another group was administered with 0.10 μg/μL GK-1 solution in ISS; a third group received 100 μL of DMSO (0.05%); and a fourth group was administered with 100 μL of ISS; treatments were applied intravenously in all cases. Treatments were repeated weekly after a palpable tumor appeared and for 32 days after cell implantation.
In order to establish the antitumor effect of GK-1, lungs were dissected from mice in all experimental groups at the day 32 post-implantation, and were fixed in a 10% formaldehyde solution to macroscopically determine the number of tumor foci developed.

Another test relates to 4T1 cells. Conditions: superficial zone, day 39. The method, then: A histological analysis was performed on primary tumors at day 39 post-implantation, to determine the percentage of zones with tissue death in mice from the Example of Embodiment 3. All tumors were manually sectioned and fixed in a 10% formaldehyde solution overnight at 4° C. Then, samples were included in paraffin and processed to obtain 4-μm slices; slices were stained with hematoxylin and eosin (H&E). The upper, middle, and deep tumor sections were analyzed through an Olympus B×50 microscope equipped with a digital camera and using the Infinity Analyze software (v6.3.0).

Test [3] deals with T cell, macrophage, and dendritic cells. Conditions: in vitro; cited from earlier work.
The subject of a further test is melanoma. The settings on record: mouse melanoma model; cited from earlier work.

“G-Y-Y-Y-P-S-D-P-N-T-F-Y-A-P-P-Y-S-A (GYYYPSDPNTFYAPPYSA; tapeworm) [GK-1, 18-aminoacid peptide identified and cloned from the KETc7 protein of Taenia crassiceps cysticerci]”: in the test with B16-F10 cells [1] (Females), the “Distant (tumors at sites other than the lungs: liver, brain, intestine)” value was 1/10; the “Lung (mice with lung tumors)” value is 8/10; the “Number of tumors developed (Tumors)” value was 62.9 ± 48.1. Also, in the test on B16-F10 cells [1] (Males), the “Distant (tumors at sites other than the lungs: liver, brain, intestine)” value was 0/10; the “Lung (mice with lung tumors)” value is recorded as 8/10; the “Number of tumors developed (Tumors)” value was 77.0 ± 37.6. For the same substance, the “antimetastatic effect in melanoma” value in the test with B16-F10 cells [1] (lung tumor foci G1 versus G2) is listed as “ineffective to stop metastasis in melanoma”. Besides, the survival rate in the test on B16-F10 cells [2] (GK-1 dissolved in DMSO (0.05%)) is 25%. Besides, the survival rate in the test on B16-F10 cells [2] (GK-1 dissolved in ISS) was 57.14%. Moreover, in the test with B16-F10 cells [2] (day 32, GK-1 in DMSO or ISS versus vehicles), the “number of tumor foci developed in lungs versus other treatments” value is given as “no statistically significant differences”. For the same substance, in the test on 4T1 cells, the “area of necrotic-apoptotic cells in primary tumor” value is “increase in the area of necrotic-apoptotic cells”. The “immune cell activation (CD80/86, MHC-II expression; IFN-γ, TNF-α, CCL2 secretion)” value in test [3] was “promoting T cell, macrophage, and dendritic cells activation”. In the test on melanoma, the mean survival entry is recorded as “increased the mean survival”, the primary tumor necrosis result is “increased primary tumor necrosis” and the tumor growth rate result is “delayed tumor growth rate”.
